According to patent publication US9974776B2, “Estrogen receptor beta agonists for use in treating mesothelioma” (Karo Pharma AB, priority 2013, dated 2018):
Where two headings read alike, the source gives them in different places.

Columns and labels:
[1] = test system: PARP1 cleavage; experiment: Western blot of PARP1 cleavage in REN cells; type: cell-based, human; settings: agent alone
Method: Cells were extracted with 1% NP-40 lysis buffer (1% NP-40, 150 mM NaCl, 50 mM Tris-HCl pH 8.5 mM EDTA, 10 mM NaF, 10 mM Na4P2O7, 0.4 mM Na3VO4) with freshly added protease inhibitors (10 μg/ml leupeptin, 4 μg/ml pepstatin and 0.1 Unit/ml aprotinin). For protein extraction from tissues, ˜100 mg of each sample were homogenized, using a Potter-Elvehjem homogenizer device, in 1% NP-40 lysis buffer. Lysates were centrifuged at 13.000×g for 10 minutes at 4° C. and the supernatants were collected and assayed for protein concentration with the Bio-Rad protein assay method.
Proteins were separated by SDS-PAGE under reducing conditions. Following SDS-PAGE, proteins were transferred to nitrocellulose, reacted with specific antibodies and then detected with peroxidase-conjugate secondary antibodies and chemioluminescent ECL reagent. Densitometric analysis was performed using the GS 250 Molecular Image (Bio-Rad).
Levels of PARP1, cleaved PARP1, AKT and phosphorylated AKT in REN cells treated for 24 hours with cisplatin (25, 50 and 100 μM) or pre-treated 2 hours with Compound (I) (10 nM) followed by wash-off and continued growth in normal medium±cisplatin (25, 50 and 100 μM), for an additional 24 hours were also determined by Western blot analysis and relative densitometry. Total AKT and Tubulin staining were used for normalization. PARP1 cleavage was analysed as it is an indicator of apoptotic cell death. As increased AKT activity has been implicated in the control of proliferation, apoptosis and cisplatin resistance (Pinton G., et al, PLoS One (2012) 7:e36856), AKT activation status following different treatments was also analysed.

[2] = test system: MET5A cells; experiment: Proliferation assay in non-malignant mesothelial MET5A cells; type: cell-based; settings: 24 hours treatment
Method: (§1) Cells were seeded at a density of 10×10^4 cells/well in 6-well plates in RPMI medium supplemented with 10% FBS, 100 μg/ml streptomycin and 10 μg/ml penicillin and incubated over-night at 37° C. in a humidified environment containing 5% CO2 to allow adherence. Following treatment cells were trypsinized and stained with Trypan blue. The number of cells considered viable (unstained cells) was counted in a Bürker haemocytometer within 5 minutes after staining.
Cell cultures were pretreated with Compound (I) for 1-16 hours (depending on experiment) followed by wash-off and then replenished with normal growth medium±cisplatin, pemetrexed or cisplatin/pemetrexed. Total incubation time was 24-72 hours (depending on experiment). Control cultures were maintained in normal growth medium without added drug. The number of viable cells was determined as described for the proliferation assay.

[3] = test system: REN cells; experiment: Proliferation assay (Trypan blue viable cell count; wash-off and add-on experiments) in REN cells; type: cell-based, human; settings: concentrations used in Example 2(a), said in b159 to be the respective IC50 concentrations, read-out: IC50 concentration in REN cells
Method: as §1
Control cultures were maintained in normal growth medium without added drug. The number of viable cells was determined as described for the proliferation assay.
In the add-on experiments the second drug was added directly to the cell culture medium without wash-off of the first drug. […] Control cultures were maintained in normal growth medium without added drug. The number of viable cells was determined as described for the proliferation assay.

SMILES | PARP1 cleavage, single agent [1] | IC50 [2] | IC50 [3] | IC50 ([3]; Homo sapiens)
N.N.[Cl][Pt][Cl] [cisplatin, reference compound] | neither cisplatin nor Compound (I) alone resulted in significant PARP1 cleavage | 25 µM | 100 µM | 
Nc1nc2[nH]cc(CCc3ccc(C(=O)N[C@@H](CCC(=O)O)C(=O)O)cc3)c2c(=O)[nH]1 [pemetrexed, reference compound] |  |  |  | 22 µM
